Data reported in US8772463B2, “Fluorescent dye-labeled glucose bioprobe, synthesis method and usage thereof” (SNU R&DB Foundation, priority 2007, dated 2014).

How the values were obtained:
cells = assay: Cell viability, CCK-8 kit; assay type: cell-based; details: Cy3-Glc-α 12.5 μM
Procedure: (2) Therefore, Cy3-Glc-α should not affect cell viability. The viability of cells treated with Cy3-Glc-α (12.5 μM) by using a CCK-8 kit (Cell Counting Kit-8, Dojindo, Japan) was measured by using an ELISA plate reader (ELx800™, BioTex, USA) DP. CCK-8 is a colorimetric assay for determining the number of viable cells in cell proliferation and cytotoxicity assays. The principle of measuring cell viability of CCK-8 is the same as that of MTT. However, CCK-8 is more sensitive than MTT.

NIH/3T3 cells = assay: Cy3-Glc-α uptake in normal cells versus cancer cells, inverted fluorescent microscope; assay type: cell-based, murine
Procedure: 1×10^4 cells were cultured on a Lab-Tek glass chamber slide (Nalge Nunc International, Naperville, Ind., USA) in 35 mm cell culture dish. After 24 h, the cells were treated for each experimental purpose. Then, the medium was replaced with RPMI 1640 medium containing 12.5 μM of Cy3-Glc-α. The cells were exposed to Cy3-Glc-α for 40 min, then washed with PBS 3 times. Finally, the glass chamber slide was taken from culture dish and loaded on the fluorescence microscope (Axiovert 200, Carl Zeiss, Germany). Fluorescence images of 35-50 cells were taken by CCD camera (Axiocam MRm, Germany) and fluorescence intensity of each cell was measured by Axiovision (program for data analysis). An area as ROIs (regions of interest) which contains a cell in phase-contrast image was drawn using Axiovision. Axiovision analyzed CCD camera images and provided the digitized mean of fluorescence intensity in the ROIs that the present inventors had established. The present inventors subtracted the background intensity from the fluorescence intensity to get the fluorescence intensity value that a cell contained. With the method described above, the present inventors digitized fluorescence intensity and performed various experiments.
(2) Based on this observation, further studies in bioimaging and bioapplication were performed only with the α anomer as choice of the bioprobe. […]

A549 cells = assay: Cy3-Glc-α intracellular uptake efficiency, confocal laser scanning microscope (CLSM); assay type: cell-based, human; details: CLSM live-cell imaging
Procedure: 1×10^4 cells were cultured on a Lab-Tek glass chamber slide (Nalge Nunc International, Naperville, Ind., USA) in 35 mm cell culture dish. After 24 h, the glass chamber slide was taken from culture dish and loaded on chamber. Then, the chamber was attached to the microscope. The temperature of the chamber was maintained at 37° C. After injection of 12.5 μM of Cy3-Glc-α in RPMI 1640 in the chamber, the fluorescent image was taken every 60 sec, digitized, and saved on a computer for later analysis.
(1) To evaluate the applicability of the fluorescent glucose analogue (Cy3-Glc-α) of the present invention, finally obtained in Example 1, as a bioprobe, the intracellular uptake efficiency of Cy3-Glc-α was measured by using a confocal laser scanning microscope (CLSM).
(2) In addition, the experiment was performed by using the confocal laser scanning microscope to measure the optimum incubation time required to achieve the maximum uptake of the analogue Cy3-Glc-α.

In the case of `C[N+]1=C(/C=C/C=C2/N(CCCCC(=O)NCCOCCOCCNCCOC3OC(CO)C(O)C(O)C3O)c3ccccc3C2(C)C)C(C)(C)c2ccccc21` [Cy3-Glc-α, [2-(N-Cy3-3,6-dioxaoctane-1,8-diaminoethyl)]-α-D-glucose], the cell viability (cells) is reported as “does not affect cell viability”, the “Cy3-Glc-α uptake in NIH/3T3 relative to that of A549 cells” value (NIH/3T3 cells) is reported as 30% and the “incubation time to maximum uptake” value (A549 cells) is reported as no more than 35 min.
